Test results: patent US20250387481A1, “PRE-TREATED T CELLS FOR USE AS A MEDICAMENT” (STICHTING HET NEDERLANDS KANKER INSTITUUT-ANTONI VAN …, priority 2022, published 2025)

Tests used:
KB1P organoids = experiment: Co-culture of pre-treated splenic T cells with KB1P organoids (MTT, cleaved-caspase 3); format: cell-based, mouse; conditions: T cells that cannot mature nor produce a TCR response
MMTV-PyMT organoids = experiment: Co-culture of pre-treated splenic T cells with MMTV-PyMT organoids (MTT, cleaved-caspase 3); format: cell-based, mouse; conditions: CD4 or CD8 T cells pre-treated with docetaxel
Experimental: Preparation of T cells: T cells isolated from mouse spleens or from mouse mammary tumors were cultured in Roswell Park Memorial Institute (RPMI) 1640 Medium (Thermo Fisher Scientific, Cat. No. 21875034) containing FBS (10%, Thermo Fisher Scientific, Cat. No. A4766801), Penicillin/streptomycin (10,000 U/ml; Thermo Fisher Scientific, Cat. No. 15140-122), IL2 (Thermo Fisher Scientific, Cat. No. PMC0025), β-mercaptoethanol (50 μmol/L) and Ultraglutamine (2 mmol/L, Lonza, Cat. No. BE17-605E/U1). T cells were kept in 20% O2, 5% CO2 and at 37 degrees Celsius
In order to assess the direct effects of docetaxel on T cell activation for T cells isolated from the spleen, T cells were cultured in the absence of CD3 and CD28 antibodies.
For T cells isolated from mouse mammary tumors, T cells were directly co-cultured with tumor organoids after FACS isolation. For T cells isolated from the spleen, T cells were treated for 72 h with PBS or with docetaxel (docetaxel 10 nmol/L), in the presence or absence of an LCKi (10 μmol/L, Merck Millipore, Cat. No. 213743-31-8). To evaluate the docetaxel-specificity of our observations, T cells were treated with paclitaxel 10 nmol/L or carboplatin 50 μmol/L for 72 h. […]
Following co-culture, medium was removed, and cultures were washed in PBS to remove T cells. […] Plates were read with a 565 nm wavelength. […]

mouse splenic T cells = experiment: MTT assessment of mouse splenic T cell survival following chemotherapy treatment in vitro; format: cell-based; conditions: 10 nmol/L, 72 h
Experimental: About 100,000 T cells were seeded per well in a 96-well plate and treated with
increasing doses of docetaxel, paclitaxel, or carboplatin for 72 h. Next, T cells were incubated with Thiazolyl Blue Tetrazolium Bromide (0.5 mg/ml, Sigma Aldrich, Cat. No. 298-93-1) for 3 hr in the dark at 37 degrees Celsius. Subsequently, T cells were incubated for 16 h in the dark in a lysis buffer (40% dimerhylofrmamide, 0.55 mol/L sodium dodecyl sulfate, 2% acetic acid, 8.4 mmol/L HCl in MilliQ water). Plates were read with a 565 nm wavelength.

[1] = system: MMTV-PyMT organoids expressing OVA; experiment: Co-culture of OT I T cells with MMTV-PyMT organoids expressing OVA (cleaved-caspase 3); format: cell-based, mouse; conditions: OT I T cells pre-treated with docetaxel vs control
Experimental: Experiments were approved by the Animal Welfare Committee of the Netherlands Cancer Institute and were performed in accordance with national guidelines. Mice were housed in individually ventilated cage (IVC) systems under specific pathogen-free conditions and received chow and water ad libitum. FVB/NRj females (Janvier), C57BL/6-Tg (TcraTcrb) 1100Mjb/J females (OT I mice, Jackson laboratory), and ROSA26mTmG FVB females (NKI) were used at 8-20 weeks of age at the time of fat pad injection of tumor organoids or spleen isolation.
For T cells isolated from mouse mammary tumors, T cells were directly co-cultured with tumor organoids after FACS isolation. For T cells isolated from the spleen, T cells were treated for 72 h with PBS or with docetaxel (docetaxel 10 nmol/L), in the presence or absence of an LCKi (10 μmol/L, Merck Millipore, Cat. No. 213743-31-8). To evaluate the docetaxel-specificity of our observations, T cells were treated with paclitaxel 10 nmol/L or carboplatin 50 μmol/L for 72 h. Subsequently, T cells were collected and washed 3 times in PBS to remove residual chemotherapy or LCKi.
Organoids were fixed in 4% paraformaldehyde in PBS for 20 min at room temperature, followed by permeabilization in 0.2% TritonX-100 in PBS for 15 min at room temperature. […]

## CC(=O)O[C@@]12CO[C@@H]1C[C@H](O)[C@@]1(C)C(=O)[C@H](O)C3=C(C)[C@@H](OC(=O)[C@H](O)[C@@H](NC(=O)OC(C)(C)C)c4ccccc4)C[C@@](O)([C@@H](OC(=O)c4ccccc4)[C@H]21)C3(C)C [docetaxel]
KB1P organoids
  T cell-mediated killing by T cells from NOD-SCID IL2rg-/- mice: triggered T cell-mediated killing
MMTV-PyMT organoids
  T cell-mediated killing in presence or absence of LCKi: TCR-independent increase of T cell-mediated killing
Mouse splenic T cells
  killing of T cells (MTT): did not induce significant killing of T cells
[1]
  cytotoxicity of OT I T cells (apoptosis in OVA+ organoids): further enhanced
